Assay results from patent publication US6869912B2, “Biocidal composition” (priority 2000, dated 2005).

How the values were obtained:
[1] = system: plants and animals; settings: cited from earlier work
[2] = Particle size analysis using a Hiac/Royco 8000A Laser Extinction Counter; type: physicochemical; settings: particles formed in Example 1
Description: Particle size analysis, using a Hiac/Royco […] Laser Extinction Counter of a typical batch of the biocidal preparation gave;

[3] = Settling of copper (II) oxalate particles through water in a measuring cylinder; type: physicochemical; settings: majority of particles, distributed on the surface of a measuring cylinder
Protocol: A portion of a biocidal composition prepared as described above was distributed on the surface of a measuring cylinder. […] After standing for approximately four hours, samples were taken by pipette from various portions of the water body. The concentration of copper (II) ions in the water body was measured, by way of atomic absorption spectrophotometry, at between 5 and 8 parts per million.

Structure (SMILES) | Concentration not toxic to almost all plants and animals ([1]; over extended periods of time) | Level tolerated by most plants and animals ([1]; over relatively short periods of time) | Predominant particle size [2] | Settling rate of particles [3]
[Cu+2] [copper (II) ions] | up to 2 parts per million | 10 parts per million |  | 
O=C([O-])C(=O)[O-].[Cu+2] [copper (II) oxalate] |  |  | below 10 μm | 2-5 metres per hour
